Reference: ChEMBL document CHEMBL1201862, “PubChem BioAssay data set” (2004)
Activity calls are given as the source filed them.

Key:
Protein RecA = biological target: T1, Protein RecA (Mycobacterium tuberculosis, UniProt P9WHJ3); assay: Fluorescence Cell-Free Homogeneous Dose Retest to Identify Inhibitors of RecA-Intein Splicing Activity. [Related pubchem assays (depositor defined):AID2097, AID2223, AID489010, AID492950]; format: functional
T1 sequence (P9WHJ3 whole entry): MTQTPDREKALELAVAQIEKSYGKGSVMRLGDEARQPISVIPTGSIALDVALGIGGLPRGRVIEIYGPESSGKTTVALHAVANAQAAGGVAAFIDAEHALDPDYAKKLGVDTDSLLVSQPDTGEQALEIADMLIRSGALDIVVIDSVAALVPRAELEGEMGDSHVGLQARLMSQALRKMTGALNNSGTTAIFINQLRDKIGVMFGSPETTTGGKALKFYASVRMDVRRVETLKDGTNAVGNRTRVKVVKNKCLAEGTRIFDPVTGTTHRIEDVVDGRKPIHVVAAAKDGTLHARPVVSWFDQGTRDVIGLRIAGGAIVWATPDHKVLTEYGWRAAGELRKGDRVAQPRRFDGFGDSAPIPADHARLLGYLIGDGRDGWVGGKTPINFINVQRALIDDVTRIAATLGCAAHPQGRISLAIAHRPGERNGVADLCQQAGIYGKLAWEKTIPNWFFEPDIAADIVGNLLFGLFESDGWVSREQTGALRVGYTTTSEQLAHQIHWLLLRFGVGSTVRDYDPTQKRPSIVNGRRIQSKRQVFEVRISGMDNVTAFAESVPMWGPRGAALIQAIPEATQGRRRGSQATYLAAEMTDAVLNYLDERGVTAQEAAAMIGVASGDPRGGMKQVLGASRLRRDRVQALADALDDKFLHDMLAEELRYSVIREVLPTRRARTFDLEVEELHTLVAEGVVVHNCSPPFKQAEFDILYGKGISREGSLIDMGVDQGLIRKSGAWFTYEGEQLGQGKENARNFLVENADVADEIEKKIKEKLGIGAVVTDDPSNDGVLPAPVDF

Aspartyl aminopeptidase = biological target: T2, Aspartyl aminopeptidase (Plasmodium falciparum 3D7, UniProt Q8I2J3); assay: Counterscreen for inhibitors of M1 and M17 aminopeptidases: QFRET-based biochemical high throughput dose response assay for inhibitors of the Plasmodium falciparum M18 Aspartyl Aminopeptidase (PFM18AAP). [Related PubChem assays: 1619 (Screening assay (M17LAP inhibitors).), 1445 (Screening assay (M1AAP inhibitors).)]
T2 sequence (Q8I2J3 whole entry): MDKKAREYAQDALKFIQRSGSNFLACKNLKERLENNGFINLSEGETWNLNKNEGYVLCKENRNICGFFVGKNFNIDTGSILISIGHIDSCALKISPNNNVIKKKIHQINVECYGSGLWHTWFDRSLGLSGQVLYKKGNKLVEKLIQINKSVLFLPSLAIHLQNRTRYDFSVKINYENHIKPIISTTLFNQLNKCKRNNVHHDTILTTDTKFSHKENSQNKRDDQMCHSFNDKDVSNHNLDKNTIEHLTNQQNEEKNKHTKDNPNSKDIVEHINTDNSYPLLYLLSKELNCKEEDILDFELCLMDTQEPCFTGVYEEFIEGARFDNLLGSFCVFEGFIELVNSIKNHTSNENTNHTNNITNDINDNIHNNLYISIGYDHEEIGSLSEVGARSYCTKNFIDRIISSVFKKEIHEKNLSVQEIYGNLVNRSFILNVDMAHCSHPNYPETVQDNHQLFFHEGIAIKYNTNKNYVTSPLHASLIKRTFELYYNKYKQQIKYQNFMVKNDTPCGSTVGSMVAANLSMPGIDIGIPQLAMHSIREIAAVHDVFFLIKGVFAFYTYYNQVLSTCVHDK

[1] = biological target: T3, Replicative DNA helicase DnaB (Mycobacterium tuberculosis, UniProt P9WMR3); assay: DnaB intein splicing inhibitors, dose response, biochemical, cell-free fluorescence (AID 449749); format: functional
T3 sequence (P9WMR3 whole entry): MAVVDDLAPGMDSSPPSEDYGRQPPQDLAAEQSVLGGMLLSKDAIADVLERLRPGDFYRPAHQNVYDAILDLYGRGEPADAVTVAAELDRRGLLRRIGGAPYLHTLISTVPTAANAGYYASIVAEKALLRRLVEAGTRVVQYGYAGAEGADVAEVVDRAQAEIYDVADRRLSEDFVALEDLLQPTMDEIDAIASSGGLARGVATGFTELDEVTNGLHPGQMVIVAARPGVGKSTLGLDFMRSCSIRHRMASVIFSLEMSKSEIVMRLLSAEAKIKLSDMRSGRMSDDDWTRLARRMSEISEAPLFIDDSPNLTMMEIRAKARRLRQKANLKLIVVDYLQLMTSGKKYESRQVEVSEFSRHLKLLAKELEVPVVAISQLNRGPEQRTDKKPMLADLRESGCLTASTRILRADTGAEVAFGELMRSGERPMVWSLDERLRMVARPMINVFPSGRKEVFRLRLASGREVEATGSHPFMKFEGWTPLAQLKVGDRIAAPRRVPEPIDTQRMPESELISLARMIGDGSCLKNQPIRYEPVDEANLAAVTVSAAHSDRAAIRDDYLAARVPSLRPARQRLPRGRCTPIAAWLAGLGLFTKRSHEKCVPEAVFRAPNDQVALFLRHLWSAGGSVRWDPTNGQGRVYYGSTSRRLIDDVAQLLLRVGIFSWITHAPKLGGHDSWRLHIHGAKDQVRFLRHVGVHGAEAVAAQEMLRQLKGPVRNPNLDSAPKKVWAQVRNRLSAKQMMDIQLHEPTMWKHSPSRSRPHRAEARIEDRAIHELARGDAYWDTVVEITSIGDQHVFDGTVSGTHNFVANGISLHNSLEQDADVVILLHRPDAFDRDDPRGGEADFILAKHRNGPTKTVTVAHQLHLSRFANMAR

Procathepsin L = Procathepsin L (Homo sapiens, UniProt P07711); assay: CTSL1 protease inhibition – biochemical, QFRET, 1536-well, counter-screen for M1/M17 aminopeptidase inhibitor project, dose response (AID 2214)
Sequence of Procathepsin L (P07711 whole entry): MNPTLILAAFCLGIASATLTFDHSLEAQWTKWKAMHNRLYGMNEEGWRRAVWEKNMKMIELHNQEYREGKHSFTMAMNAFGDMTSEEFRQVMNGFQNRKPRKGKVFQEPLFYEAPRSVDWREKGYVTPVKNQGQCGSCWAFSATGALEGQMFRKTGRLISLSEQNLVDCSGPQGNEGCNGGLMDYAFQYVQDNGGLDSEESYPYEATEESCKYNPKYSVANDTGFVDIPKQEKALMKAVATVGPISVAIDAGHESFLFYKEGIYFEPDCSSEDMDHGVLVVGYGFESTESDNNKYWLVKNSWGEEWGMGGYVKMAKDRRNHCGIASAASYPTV

Leucine aminopeptidase = biological target: T4, Leucine aminopeptidase (Plasmodium falciparum 3D7, UniProt Q8IL11); assay: P. falciparum M17LAP inhibitors, primary screen, biochemical, fluorogenic H-Leu-NHMec substrate, 1536-well (AID 1619); format: functional
T4 sequence (Q8IL11 whole entry): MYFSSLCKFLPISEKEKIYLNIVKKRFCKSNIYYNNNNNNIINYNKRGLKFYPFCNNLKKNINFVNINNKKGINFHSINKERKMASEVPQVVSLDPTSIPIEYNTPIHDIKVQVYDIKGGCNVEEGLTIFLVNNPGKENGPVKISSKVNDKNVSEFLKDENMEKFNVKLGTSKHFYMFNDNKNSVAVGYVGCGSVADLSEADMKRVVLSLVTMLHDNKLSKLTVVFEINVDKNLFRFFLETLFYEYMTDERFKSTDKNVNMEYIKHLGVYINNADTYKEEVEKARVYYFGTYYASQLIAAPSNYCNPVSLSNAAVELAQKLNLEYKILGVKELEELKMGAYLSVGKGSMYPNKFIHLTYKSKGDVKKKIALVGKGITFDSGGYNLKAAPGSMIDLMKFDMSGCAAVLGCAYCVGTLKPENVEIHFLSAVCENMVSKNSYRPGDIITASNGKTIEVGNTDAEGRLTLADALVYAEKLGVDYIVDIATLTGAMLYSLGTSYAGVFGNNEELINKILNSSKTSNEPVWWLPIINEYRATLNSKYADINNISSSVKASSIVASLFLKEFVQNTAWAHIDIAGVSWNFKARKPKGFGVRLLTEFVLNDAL

[2] = biological target: Epstein-Barr nuclear antigen 1 (Epstein-Barr virus (strain B95-8) (HHV-4) (Human herpesvirus 4), UniProt P03211); assay: inhibition of EBV nuclear antigen 1 DNA binding – biochemical, fluorescence polarization, 1536-well, dose response (AID 2381); set-up: species or system human gammaherpesvirus 4;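 also: fluorescence polarization of a Cy5 DNA probe bound by EBNA-1 protein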
Sequence of Epstein-Barr nuclear antigen 1 (P03211 whole entry): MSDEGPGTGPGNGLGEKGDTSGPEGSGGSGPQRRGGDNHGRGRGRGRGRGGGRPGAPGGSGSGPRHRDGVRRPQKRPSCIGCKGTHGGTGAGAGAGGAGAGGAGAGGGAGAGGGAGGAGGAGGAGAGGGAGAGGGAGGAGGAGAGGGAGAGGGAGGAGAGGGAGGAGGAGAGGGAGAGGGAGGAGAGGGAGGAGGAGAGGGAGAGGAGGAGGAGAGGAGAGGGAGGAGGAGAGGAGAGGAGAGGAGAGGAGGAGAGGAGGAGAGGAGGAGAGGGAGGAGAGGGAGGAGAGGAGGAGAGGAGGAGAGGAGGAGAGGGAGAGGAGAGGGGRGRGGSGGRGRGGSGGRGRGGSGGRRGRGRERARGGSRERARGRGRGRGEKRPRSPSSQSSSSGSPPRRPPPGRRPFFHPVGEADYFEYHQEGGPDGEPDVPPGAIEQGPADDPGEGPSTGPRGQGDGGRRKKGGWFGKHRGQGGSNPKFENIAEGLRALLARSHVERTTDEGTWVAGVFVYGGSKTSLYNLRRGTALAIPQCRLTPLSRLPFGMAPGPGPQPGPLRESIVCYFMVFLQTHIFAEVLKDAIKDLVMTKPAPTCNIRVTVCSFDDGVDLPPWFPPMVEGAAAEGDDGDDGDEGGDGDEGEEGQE

[3] = biological target: Lytic switch protein BZLF1 (Epstein-Barr virus (strain B95-8) (HHV-4) (Human herpesvirus 4), UniProt P03206); assay: inhibition of BZLF1 ZTA DNA binding – biochemical, fluorescence polarization, Epstein-Barr virus, 1536-well, counter-screen for EBNA-1 inhibitor project, dose response (AID 2377); set-up: species or system human gammaherpesvirus 4;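 also: fluorescence polarization of Cy5-labelled ZRE DNA probe bound by purified Zta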
Sequence of Lytic switch protein BZLF1 (P03206 whole entry): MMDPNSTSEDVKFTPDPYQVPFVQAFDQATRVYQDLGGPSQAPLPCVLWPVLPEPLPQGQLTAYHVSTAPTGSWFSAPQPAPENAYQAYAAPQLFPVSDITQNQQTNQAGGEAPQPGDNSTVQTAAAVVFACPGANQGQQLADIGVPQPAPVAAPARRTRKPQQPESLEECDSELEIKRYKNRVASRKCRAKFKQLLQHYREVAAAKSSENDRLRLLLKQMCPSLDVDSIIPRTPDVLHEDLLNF

Estrogen receptor beta [4] = biological target: T5, Estrogen receptor beta (Homo sapiens, UniProt Q92731); assay: blockers of SRC-3 recruitment to ERβ – biochemical, ELISA, streptavidin-HRP readout, orthogonal assay, confirmation (AID 1060)
T5 sequence (Q92731 whole entry): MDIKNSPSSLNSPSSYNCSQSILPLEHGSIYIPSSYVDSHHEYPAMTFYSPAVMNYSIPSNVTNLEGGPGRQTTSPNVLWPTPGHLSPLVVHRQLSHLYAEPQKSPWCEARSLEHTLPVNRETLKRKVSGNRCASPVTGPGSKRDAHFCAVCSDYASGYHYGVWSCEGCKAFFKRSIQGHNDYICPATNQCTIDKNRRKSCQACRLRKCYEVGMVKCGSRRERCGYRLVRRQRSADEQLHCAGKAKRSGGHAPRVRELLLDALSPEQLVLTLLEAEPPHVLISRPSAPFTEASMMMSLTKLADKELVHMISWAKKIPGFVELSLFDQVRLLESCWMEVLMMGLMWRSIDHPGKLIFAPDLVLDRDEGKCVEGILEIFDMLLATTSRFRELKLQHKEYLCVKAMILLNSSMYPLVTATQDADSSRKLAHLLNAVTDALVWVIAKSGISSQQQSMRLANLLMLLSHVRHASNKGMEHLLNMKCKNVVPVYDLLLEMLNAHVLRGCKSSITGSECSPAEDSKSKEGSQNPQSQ

Estrogen receptor beta [5] = biological target: T5, Estrogen receptor beta
NADPH oxidase 1 = biological target: T6, NADPH oxidase 1 (Homo sapiens, UniProt Q9Y5S8); format: functional, cell-based;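 also: Cell-based assay with luminescence read-out, IC50 derived from inhibitor dose-response curves; intracellular ROS from endogenous NOX1 in intact HT29 colon cancer cells; potency of inhibitors that lower the ROS luminescence signal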
T6 sequence (Q9Y5S8 whole entry): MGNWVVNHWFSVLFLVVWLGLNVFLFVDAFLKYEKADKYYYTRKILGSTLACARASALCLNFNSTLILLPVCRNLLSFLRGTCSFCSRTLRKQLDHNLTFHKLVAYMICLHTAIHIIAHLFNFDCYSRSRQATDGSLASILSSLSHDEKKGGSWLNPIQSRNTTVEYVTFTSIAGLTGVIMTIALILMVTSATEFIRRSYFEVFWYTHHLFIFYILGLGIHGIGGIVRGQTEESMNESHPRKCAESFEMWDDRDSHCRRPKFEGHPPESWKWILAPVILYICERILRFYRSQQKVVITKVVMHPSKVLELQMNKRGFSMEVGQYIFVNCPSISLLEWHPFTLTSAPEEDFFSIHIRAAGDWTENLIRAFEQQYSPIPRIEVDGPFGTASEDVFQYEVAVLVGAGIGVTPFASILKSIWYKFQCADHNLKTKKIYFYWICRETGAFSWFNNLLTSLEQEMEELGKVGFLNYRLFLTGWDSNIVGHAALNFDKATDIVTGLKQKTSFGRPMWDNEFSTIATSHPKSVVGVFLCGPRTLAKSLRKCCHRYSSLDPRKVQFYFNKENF

[6] = biological target: T7, Neuropeptide Y receptor type 2 (Homo sapiens, UniProt P49146); format: functional, cell-based;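 also: HEK293 cells expressing the receptor and a CNG channel; stimulus was NPY near EC95 followed by isoproterenol to raise cAMP; antagonist potency measured as restoring cAMP signal that NPY suppresses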
T7 sequence (P49146 whole entry): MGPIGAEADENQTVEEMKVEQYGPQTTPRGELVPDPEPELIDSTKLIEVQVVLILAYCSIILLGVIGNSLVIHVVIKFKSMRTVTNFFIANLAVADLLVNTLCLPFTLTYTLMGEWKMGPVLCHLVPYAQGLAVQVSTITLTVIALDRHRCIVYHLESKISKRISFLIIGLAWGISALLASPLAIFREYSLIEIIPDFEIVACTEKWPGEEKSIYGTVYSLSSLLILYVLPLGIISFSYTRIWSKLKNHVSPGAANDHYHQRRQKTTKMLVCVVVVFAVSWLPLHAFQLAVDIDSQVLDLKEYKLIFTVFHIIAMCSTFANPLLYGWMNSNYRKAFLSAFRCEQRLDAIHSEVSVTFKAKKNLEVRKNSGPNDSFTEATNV

[7] = biological target: T8, Neuropeptide Y receptor type 1 (Homo sapiens, UniProt P25929); format: functional;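 also: HEK293 cells with a CNG channel challenged with NPY then isoproterenol; potency as antagonist that reverses NPY suppression of cAMP signal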
T8 sequence (P25929 whole entry): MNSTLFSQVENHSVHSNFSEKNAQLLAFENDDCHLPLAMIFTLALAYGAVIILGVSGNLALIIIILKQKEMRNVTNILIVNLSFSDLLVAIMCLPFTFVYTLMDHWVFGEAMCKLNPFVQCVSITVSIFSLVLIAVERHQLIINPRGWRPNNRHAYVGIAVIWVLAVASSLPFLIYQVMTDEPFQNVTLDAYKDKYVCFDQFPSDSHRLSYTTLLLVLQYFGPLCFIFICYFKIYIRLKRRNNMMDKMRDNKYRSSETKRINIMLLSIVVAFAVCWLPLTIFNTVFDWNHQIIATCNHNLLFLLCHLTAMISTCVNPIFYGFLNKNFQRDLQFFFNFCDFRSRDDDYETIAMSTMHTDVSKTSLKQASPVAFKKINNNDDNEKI

[8] = decrease of insulin promoter-GFP reporter – imaging, high-content screening, mouse beta cells (AID 1628); format: functional; details: MIN6
[9] = MIN6 cell viability loss – mouse insulinoma, cytotoxicity control, dose response (AID 2122); format: functional;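 also: confirmatory high-throughput counterscreen run to flag cytotoxic compounds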
Nonstructural protein 1 = Nonstructural protein 1 (Influenza A virus, UniProt Q194T2); format: functional, Influenza A virus (A/California/07/2009(H1N1))
Sequence of Nonstructural protein 1 (Q194T2 whole entry): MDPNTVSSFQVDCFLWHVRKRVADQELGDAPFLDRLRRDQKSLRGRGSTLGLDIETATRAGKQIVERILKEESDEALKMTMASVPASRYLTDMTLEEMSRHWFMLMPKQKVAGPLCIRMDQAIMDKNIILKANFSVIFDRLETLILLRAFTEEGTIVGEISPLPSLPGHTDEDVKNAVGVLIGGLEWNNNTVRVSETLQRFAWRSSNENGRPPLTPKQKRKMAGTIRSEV

O=c1cc(-c2ccc(F)cc2)[nH][nH]1
EC50 (Protein RecA): 0.548 µM (active) | IC50 (Aspartyl aminopeptidase): > 73.5 µM (not active) | AC50 [1]: 1.79 µM (active) | IC50 (Procathepsin L): > 59.6 µM (not active) | IC50 (Leucine aminopeptidase): 1.13 µM (active)

O=C(NC(=S)Nc1ccc(S(=O)(=O)N2CCCCCC2)cc1)c1cccs1
IC50 [2]: 14.8 µM (not active) | IC50 [3]: > 111 µM (not active)

Cc1ccc(Nc2nnc(SC3CCOC3=O)s2)c(C)c1 (stereo not drawn)
IC50 (Aspartyl aminopeptidase): > 73.5 µM (not active) | IC50 (Procathepsin L): > 59.6 µM (not active) | IC50 (Leucine aminopeptidase): 2.57 µM (active)

COCc1cc(O)n2c(-c3ccc(C)cc3)nnc2n1
IC50 (Estrogen receptor beta [4]): 1.03 µM (not active) | IC50 (Estrogen receptor beta [5]): 17.5 µM (active)

O=C(CCC(=O)Nc1ccc(F)cc1)Nc1ccc(F)cc1
IC50 (NADPH oxidase 1): > 17 µM (not active)

COc1ccc(NC(=O)c2nnc(O)c3ccccc23)cc1S(=O)(=O)N1CCCCC1
IC50 [6]: 19.6 µM (not active) | IC50 [7]: 21 µM (not active)

O=C(NNC(=O)c1ccc(NC(=O)c2ccccc2)cc1)c1ccc(F)cc1
IC50 [2]: 6.82 µM (active) | IC50 [3]: > 111 µM (not active)

COc1cc(/C=N/Nc2c(Cl)c(Cl)nc(C(=O)O)c2Cl)cc(OC)c1OC
IC50 (NADPH oxidase 1): > 17 µM (not active)

CN(C)c1ccc(/N=C/c2ccco2)cc1
IC50 [8]: 3.55 µM (active) | IC50 (Estrogen receptor beta [4]): 0.048 µM (not active) | IC50 (Estrogen receptor beta [5]): 18.5 µM (active) | IC50 [9]: 3.61 µM (active) | IC50 (Nonstructural protein 1): 16.6 µM (active)
